Reference: patent US12617795B2, “Substituted 6,7-dihydro-5H-pyrrolo[3,4-d]pyrimidines, 5,7-dihydrofuro[3,4-d]pyrimidines, and pyrido[2,3-d]pyrimidines as KCC2 modulators” (Astrazeneca AB, priority 2020, dated 2026)

Target: T1, KCC2 (Homo sapiens, UniProt Q9H2X9)
T1 construct: expressed in transfected cells; host or cells: HEK293 cells electroporated (Maxcyte STX) with the pcDNA3.1 KCC2 plasmid
T1 sequence (Q9H2X9 1-1139): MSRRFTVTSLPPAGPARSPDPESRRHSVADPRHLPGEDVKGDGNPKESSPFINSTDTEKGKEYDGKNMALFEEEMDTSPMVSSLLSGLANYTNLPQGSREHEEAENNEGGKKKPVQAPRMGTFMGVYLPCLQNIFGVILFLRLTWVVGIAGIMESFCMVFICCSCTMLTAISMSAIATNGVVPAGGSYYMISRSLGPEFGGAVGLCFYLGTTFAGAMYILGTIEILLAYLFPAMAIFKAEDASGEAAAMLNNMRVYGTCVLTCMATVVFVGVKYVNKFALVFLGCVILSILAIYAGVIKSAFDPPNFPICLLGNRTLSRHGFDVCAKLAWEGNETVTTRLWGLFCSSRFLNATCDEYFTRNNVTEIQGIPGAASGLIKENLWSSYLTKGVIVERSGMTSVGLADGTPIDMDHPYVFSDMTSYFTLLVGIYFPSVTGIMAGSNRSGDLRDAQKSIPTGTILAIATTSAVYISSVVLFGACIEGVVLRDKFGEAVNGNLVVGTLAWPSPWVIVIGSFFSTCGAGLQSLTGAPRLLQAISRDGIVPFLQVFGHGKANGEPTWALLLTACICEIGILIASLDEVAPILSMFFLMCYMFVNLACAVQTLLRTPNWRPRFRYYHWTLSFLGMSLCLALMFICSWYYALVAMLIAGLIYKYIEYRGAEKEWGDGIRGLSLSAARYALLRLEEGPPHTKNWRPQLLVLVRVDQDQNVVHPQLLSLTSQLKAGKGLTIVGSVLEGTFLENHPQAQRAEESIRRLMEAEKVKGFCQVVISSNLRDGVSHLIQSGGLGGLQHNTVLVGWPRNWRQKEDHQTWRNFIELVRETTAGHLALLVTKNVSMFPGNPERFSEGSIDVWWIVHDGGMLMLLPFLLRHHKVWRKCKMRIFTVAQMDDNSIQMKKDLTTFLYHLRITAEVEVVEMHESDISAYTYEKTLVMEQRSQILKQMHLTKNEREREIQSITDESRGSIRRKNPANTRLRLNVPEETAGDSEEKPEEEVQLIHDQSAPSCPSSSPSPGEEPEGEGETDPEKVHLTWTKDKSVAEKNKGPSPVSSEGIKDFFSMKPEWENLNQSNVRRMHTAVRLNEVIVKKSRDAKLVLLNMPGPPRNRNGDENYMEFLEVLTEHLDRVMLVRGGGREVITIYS
Assay: KCC2 thallium transport FLIPR-based assay (Tl+ influx in HEK293 cells expressing KCC2)
Assay type: cell-based
Details: 90 min compound incubation at RT, thallium flux at 120 s used to determine EC50
Experimental: A thallium transport FLIPR-based assay was used to measure the ability of compounds to activate KCC2. KCC2 activity is assessed by measuring KCC2-dependent Tl^+ influx in a KCC2-expressing cell. The assay protocol was based on those described by Delpire et al (Proc Natl Acad Sci USA. 2009 Mar. 31; 106(13): 5383-5388) and Zhang et al (Journal of Biomolecular Screening 15(2): 2010).
KCC2 was synthesised and codon optimised by GeneArt based on the Uniprot sequence Q9H2X9. The final sequence was subcloned into pcDNA3.1.
HEK293 cells were grown in 10 layer cell stacks at 37° C., 5% CO2, in DMEM, 10% fetal calf serum and 2 mM Glutamine. The cells were detached by removing the media and washing the cell stack with 100 ml of PBS. The PBS was removed and 100 ml of 1× TrypLE was added and the cell stack returned to 37° C. for 5 min. The detached cells were then counted in a Vi Cell counter and spun for 10 min at 1250 rpm in a Sorval Legend centrifuge. The cells were diluted down in Maxcyte electroporation buffer at 4× the final concentration and spun as before. The cell pellet was resuspended at 1×10^8/cells per ml and electroporated in a Maxcyte Cl 2.2 bag on a Maxcyte STX machine via the HEK293 programme with 200 ug/ml of plasmid DNA. The cells were then allowed to recover for 30 min before adding to 500 ml of PBS and then counted again on the Vi Cell. The cells were then frozen down in planer controlled rate freeze in 90% complete media, 10% DMSO.
All reagents were dispensed using a Mulitdrop Combi unless stated otherwise. All FluXOR Invitrogen propriety buffer compositions are mentioned in tables below.
HEK293 KCC2 cells were harvested at a density of 3.33×10^5 cells/mL in complete media (DMEM, Sigma, D6546, 10% fetal calf serum and 1% Glutamax) and 30 μL per well seeded into 384-well PDL coated black-clear plates (Corning, 354663). Leave cells at RT for 20 mins to settle before incubating for 48 h at 37° C., 5% CO2. Following incubation, perform three wash steps in HBSS (Sigma, H6648) using a Biotek cell washer with the final aspiration leaving 20 μL HBSS residual volume in each well. A further 20 μL per well of thallium loading dye is then added (1 h, RT, protect from light). 5 μL of test compounds (100 μM top concentration, 1:2 dilutions, 12 point curve) were added using the FLIPR TETRA and incubated at RT for 90 min in the dark. Following compound incubation, the thallium flux response is read on FLIPR TETRA (ex. 515-575 nm) which is initiated by FLIRR TETRA dispensing 5 μL stimulus buffer into each well. Recordings are measured every 1 second for 120 seconds. Thallium flux at 120 s used to determine EC50.
Compound buffer: Assay buffer with 1 μL of bumetanide per 10 ml.

Row | Compound | EC50
1 | CC(C)c1ccc(Nc2nc(N3C[C@@H](C)O[C@@H](C)C3)nc3c2CN(C(C)C)C3=O)cc1 [Example 4, 2-[(2R,6S)-2,6-dimethylmorpholin-4-yl]-6-(propan-2-yl)-4-{[4-(propan-2-yl)phenyl]amino}-5,6-dihydro-7H-pyrrolo[3,4-d]pyrimidin-7-one] | 3.76 µM
2 | C[C@@H]1CN(c2nc3c(c(Nc4ccc(C5CCCCC5)cc4)n2)COC3)CCO1 [Example 90, (R)—N-(4-cyclohexylphenyl)-2-(2-methylmorpholino)-5,7-dihydrofuro[3,4-d]pyrimidin-4-amine] | 1.71 µM
3 | C#CCOc1ccc(-c2ccc(Nc3nc(N4CCOCC4)nc4c3CN(C(C)C)C4=O)cc2)cc1 [Example 71, 2-(morpholin-4-yl)-6-(propan-2-yl)-4-({4′-[(prop-2-yn-1-yl)oxy][1,1′-biphenyl]-4-yl}amino)-5,6-dihydro-7H-pyrrolo[3,4-d]pyrimidin-7-one] | 4.13 µM
4 | CC(C)N1Cc2c(Nc3ccc(C4CCCCC4)cc3)nc(-c3ccnc(C4CC4)c3)nc2C1=O [Example 42, 4-[(4-cyclohexylphenyl)amino]-2-(2-cyclopropylpyridin-4-yl)-6-(propan-2-yl)-5,6-dihydro-7H-pyrrolo[3,4-d]pyrimidin-7-one] | 0.633 µM
5 | CC(C)c1ccc(Nc2nc(N3CCO[C@@H](C)C3)nc3c2CN(C(C)C)C3=O)cc1 [Example 6, 2-[(2S)-2-methylmorpholin-4-yl]-6-(propan-2-yl)-4-{[4-(propan-2-yl)phenyl]amino}-5,6-dihydro-7H-pyrrolo[3,4-d]pyrimidin-7-one] | 6.82 µM
6 | CCC1CN(c2nc(Nc3ccc(C4CCCCC4)cc3)c3c(n2)C(=O)N(C(C)C)C3)CCO1 (centres unmarked) [Example 21, 4-[(4-cyclohexylphenyl)amino]-2-(2-ethylmorpholin-4-yl)-6-(propan-2-yl)-5,6-dihydro-7H-pyrrolo[3,4-d]pyrimidin-7-one] | 2.64 µM
7 | C[C@@H]1CN(c2nc(Nc3ccc(C4CCCCC4)cc3)c3cc(Br)cnc3n2)CCO1 [Example 97, 6-bromo-N-(4-cyclohexylphenyl)-2-[(2R)-2-methylmorpholin-4-yl]pyrido[2,3-d]pyrimidin-4-amine] | 1.35 µM
8 | Cc1ccccc1-c1ccc(Nc2nc(C3=CCOCC3)nc3c2CN(C(C)C)C3=O)cc1 [Example 80, 2-(3,6-dihydro-2H-pyran-4-yl)-6-isopropyl-4-((2′-methyl-[1,1′-biphenyl]-4-yl)amino)-5,6-dihydro-7H-pyrrolo[3,4-d]pyrimidin-7-one] | 1.8 µM
9 | CC(C)N1Cc2c(Nc3ccc(C4CCCCC4)cc3)nc(N3CCO[C@H](C)C3)nc2C1=O [Example 13, 4-[(4-cyclohexylphenyl)amino]-2-[(2R)-2-methylmorpholin-4-yl]-6-(propan-2-yl)-5,6-dihydro-7H-pyrrolo[3,4-d]pyrimidin-7-one] | 1.71 µM
10 | CC(C)c1ccc(Nc2nc(N3CCOC(C4CC4)C3)nc3c2CN(C(C)C)C3=O)cc1 (centres unmarked) [Example 10, 2-(2-cyclopropylmorpholin-4-yl)-6-(propan-2-yl)-4-{[4-(propan-2-yl)phenyl]amino}-5,6-dihydro-7H-pyrrolo[3,4-d]pyrimidin-7-one] | 2.99 µM
11 | CC(C)c1ccc(Nc2nc(-c3ccncc3)nc3c2CN(C(C)C)C3=O)cc1 [Example 40, 6-isopropyl-4-((4-isopropylphenyl)amino)-2-(pyridin-4-yl)-5,6-dihydro-7H-pyrrolo[3,4-d]pyrimidin-7-one] | 6.36 µM
12 | CC(C)N1Cc2c(Nc3ccc(C(F)(F)C(F)(F)F)cc3)nc(N3CCOC(C4CC4)C3)nc2C1=O (centres unmarked) [Example 58, 2-(2-cyclopropylmorpholin-4-yl)-4-{[4-(pentafluoroethyl)phenyl]amino}-6-(propan-2-yl)-5,6-dihydro-7H-pyrrolo[3,4-d]pyrimidin-7-one] | 3.78 µM
13 | CCN(CC)c1nc(Nc2ccc(C3CCCCC3)cc2)c2c(n1)C(=O)N(C(C)C)C2 [Example 34, 4-[(4-cyclohexylphenyl)amino]-2-(diethylamino)-6-(propan-2-yl)-5,6-dihydro-7H-pyrrolo[3,4-d]pyrimidin-7-one] | 5.21 µM
14 | CCC(C)c1ccc(Nc2nc(N3CCO[C@H](C)C3)nc3c2CN(C(C)C)C3=O)cc1 (stereo partly drawn) [Example 56, 4-{[4-(butan-2-yl)phenyl]amino}-2-[(2R)-2-methylmorpholin-4-yl]-6-(propan-2-yl)-5,6-dihydro-7H-pyrrolo[3,4-d]pyrimidin-7-one] | 3.28 µM
15 | C[C@@H]1CN(c2nc(Nc3ccc(C4CCCCC4)cc3)c3cc(C(=O)O)cnc3n2)CCO1 [Example 103, (R)-4-((4-cyclohexylphenyl)amino)-2-(2-methylmorpholino)pyrido[2,3-d]pyrimidine-6-carboxylic acid] | 3.99 µM
16 | C#CCCC1(CCOc2ccc(-c3ccc(Nc4nc(C5=CCOCC5)nc5c4CN(C(C)C)C5=O)cc3)cc2)N=N1 [Example 81, 4-((4′-(2-(3-(but-3-yn-1-yl)-3H-diazirin-3-yl)ethoxy)-[1,1′-biphenyl]-4-yl)amino)-2-(3,6-dihydro-2H-pyran-4-yl)-6-isopropyl-5,6-dihydro-7H-pyrrolo[3,4-d]pyrimidin-7-one] | 2.47 µM
17 | CC(C)N1Cc2c(Nc3ccc(C4CCC4)cc3)nc(N3CCOCC3)nc2C1=O [Example 63, 4-[(4-cyclobutylphenyl)amino]-2-(morpholin-4-yl)-6-(propan-2-yl)-5,6-dihydro-7H-pyrrolo[3,4-d]pyrimidin-7-one] | 5.71 µM
18 | CC(C)N1Cc2c(Nc3ccc(-c4cccs4)cc3)nc(N3CCOCC3)nc2C1=O [Example 113, 2-(morpholin-4-yl)-6-(propan-2-yl)-4-{[4-(thiophen-2-yl)phenyl]amino}-5,6-dihydro-7H-pyrrolo[3,4-d]pyrimidin-7-one] | 4.74 µM
19 | CC(C)N1Cc2nc(N3CCO[C@H](C)C3)nc(Nc3ccc(C4CCCCC4)cc3)c2C1 [Example 110, (R)—N-(4-cyclohexylphenyl)-6-isopropyl-2-(2-methylmorpholino)-6,7-dihydro-5H-pyrrolo[3,4-d]pyrimidin-4-amine] | 7.31 µM
20 | CCCc1ccc(Nc2nc(N3CCOC(C4CC4)C3)nc3c2CN(C(C)C)C3=O)cc1 (centres unmarked) [Example 59, 2-(2-cyclopropylmorpholin-4-yl)-6-(propan-2-yl)-4-[(4-propylphenyl)amino]-5,6-dihydro-7H-pyrrolo[3,4-d]pyrimidin-7-one] | 4.46 µM
